Data: US20230181535A1, “UBIQUITIN-LIGASE INHIBITORS FOR THE TREATMENT OF CANCER” (FUNDACIÓN PROFESOR NOVOA SANTOS, priority 2020, published 2023)
Each block holds one molecule with its values, some of them ahead of it.

Columns and labels:
[1] = molecular target: T1, E3 ubiquitin-ligase Hakai (Mus musculus, UniProt Q9JIY2); test: In vivo Hakai-dependent ubiquitination assay in 293T cells; format: cell-based; conditions: vs DMSO; for Hakai-induced ubiquitination: HEK293T cells transfected with Hakai and ubiquitin
T1 construct: expressed in transfected cells; host or cells: HEK293T
T1 sequence (Q9JIY2 1-491): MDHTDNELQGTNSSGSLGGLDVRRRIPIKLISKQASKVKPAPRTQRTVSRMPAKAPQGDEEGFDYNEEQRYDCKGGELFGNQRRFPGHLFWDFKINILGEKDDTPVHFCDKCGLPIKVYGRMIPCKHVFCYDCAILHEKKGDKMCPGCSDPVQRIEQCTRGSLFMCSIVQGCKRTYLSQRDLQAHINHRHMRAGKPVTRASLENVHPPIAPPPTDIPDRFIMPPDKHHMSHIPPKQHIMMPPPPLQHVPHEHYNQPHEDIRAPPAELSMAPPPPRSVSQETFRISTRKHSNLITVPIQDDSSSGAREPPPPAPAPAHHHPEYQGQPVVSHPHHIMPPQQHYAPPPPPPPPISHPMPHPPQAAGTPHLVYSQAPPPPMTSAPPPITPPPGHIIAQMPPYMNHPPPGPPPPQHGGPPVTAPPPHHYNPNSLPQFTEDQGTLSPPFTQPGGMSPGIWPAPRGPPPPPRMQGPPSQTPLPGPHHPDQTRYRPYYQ
Description: For ubiquitination assays, 750.000 HEK293T cells were seeded in 6-well cell culture plates and after 24 h were transfected with 0.25 μg Src, 0.75 μg Flag-Hakai, and 0.5 μg HA-ubiquitin with Lipofectamin 2000 (Invitrogen, UK). Six hours after transfection cells were treated with indicated concentrations of Hakin-1, Hakin-5 or the rest of the compounds tested for 36 h. Whole cell extracts were obtained in lysis buffer (20 mM Tris-HCl pH 7.5, 150 mM NaCl and 1% Triton X-100) containing 10 μg/ml leupeptin, 10 μg/ml aprotinin and 1 mM phenylmethanesulphonyl fluoride (PMSF), supplemented with 10 mM N-ethylmaleimide. Cells were harvested and subjected to western blotting using anti-HA antibody to detect ubiquitination.

[2] = system: normal epithelial MDCK cell line; test: MTT cell viability assay, MDCK; format: cell-based; conditions: compared with Hakai-MDCK
Description: (§1) For cytotoxicity assays, 1×10^4 cells were seeded per well into a 96-well plate. After 24 h cells were treated with the indicated inhibitors for 72 h and a MTT colorimetric cell viability assay was performed following manufacturer's instructions (Sigma Aldrich, St Louis, Mo.). Absorbance was measured at 570 and 630 nm using a Multiskan Plus Reader (Nanoquant Infinite M200 Tecan Trading AG, Switzerland). Dose-response curves were designed with Graph Pad Prism Software and the half-maximal inhibitory concentration (IC50) values were calculated. Represented data are the mean±SEM of at least three independent experiments with six replicates per condition.

[3] = system: Hakai-MDCK cell lines (clone 4 and clone 11); test: MTT cell viability assay, Hakai-MDCK; format: cell-based; conditions: Hakai-MDCK clone 4 and clone 11, compared with MDCK
Description: as §1

HT-29 cells [4] = test: Phase-contrast cell phenotype, HT-29; format: cell-based, human
Description: (§2) MDCK, HEK293T, HepG2, MCF7 and ACHN cells were cultured in Dulbecco's Modified Eagles Medium (DMEM). MDCK stably expressing Hakai cells (Hakai-MDCK) were previously reported and were growth in DMEM with G418 (800 μg/ml). […] LoVo and PC-3 cells were cultured in F-12K Medium (Kaighn's Modification of Ham's F-12 Medium) and HT-29 and HCT116 cells in McCoy's 5a Medium Modified. 5637 cells were cultured in RPMI medium. All culture media were supplemented with 1% penicillin/streptomycin and 10% of heat-inactivated fetal bovine serum (FBS) at 37° C. in a humidified incubator with 5% CO2. Cells were monthly tested for mycoplasma contamination and used only for 1-3 months after defrosted. LoVo and HT29 cells were authenticated with the StemElite ID system (Promega). For phase-contrast images, culture cells were photographed with a Nikon Eclipse-TI microscope.

LoVo cells [5] = test: Phase-contrast cell phenotype, LoVo; format: cell-based
Description: as §2

[6] = system: Hakai-transformed MDCK cells; test: Phase-contrast cell phenotype, Hakai-MDCK; format: cell-based; conditions: Hakai-transformed MDCK cells (mesenchymal phenotype)
Description: as §2

epithelial MDCK cells = test: Phase-contrast cell phenotype, MDCK; format: cell-based
Description: as §2

HT-29 cells [7] = test: Western blotting of EMT markers, HT-29; format: cell-based, human; conditions: 48 h
Description: (§3) For western blot analysis, cells were treated with the indicated inhibitors for 48 h and the whole cell extracts were obtained as described previously. Twenty micrograms of lysates were resolved on a 10% polyacrilamide SDS-PAGE followed by western blot analysis performed as previously described. For immunofluorescence assays cells were grown for 24 h on glass coverslips and treated with the indicated inhibitors for 48 h. Cells were fixed with 4% PFA for 15 min, permeabilized with 0.5% […] and incubated with E-cadherin antibody for 2 h. Coverslips were incubated with fluorescein-tagged secondary antibody (Dakopatts, Sweden) for […]. Finally coverslips were mounted with ProLong Gold antifade reagent (LifeTech, UK) and images were taken in epifluorescence microscope (Olympus) using 40× objective. Immunofluorescence of E-cadherin and DNA content analysis for FIGS. 22-23 were performed culturing of HT-29 human colorectal adenocarcinoma cell line in 384-well plates with densities of 3,000 cells per well in a total volume of 25 μl. After the completion of the staining, four images (2×2 array) of each well were taken with Vala Sciences' SIM™ with a 20× objective. Each image was acquired as a SIM Synthetic Focus with a z-stack range of 6 μm with 1 μm steps. The SIM Synthetic Focus feature will compile a “best focus” images from multiple images. One set of SIM Synthetic Focus images were taken in the DAPI channel for Hoechst 33342 staining, and another set of images were taken in the FITC channel for anti-E-cadherin-AlexaFluor488 labeling and analysed by Structured Illumination Microscopy (SIM™) platform to image the cells and Vala's CyteSeer® Cell-Cell Junction Algorithm to quantify the degree of expression and intracellular location of E-cadherin Vala's CyteSeer® Software can also measure relative DNA content by analyzing Total Integrated Intensity (TII) of the Nuclear Image (Ni) on the Nuclear Mask (Nm). This analysis was performed by Vala Science. Twenty compounds from were assayed in a “blinded” manner, at 2 test concentrations in 6 replicate wells for first assay and 3 replicate for second assay.

HT-29 cells [8] = test: Immunofluorescence of E-cadherin, HT-29; format: cell-based, human; conditions: for E-cadherin expression at cell-cell contacts (immunofluorescence, Image J): 48 hours, 5-100 μM, vs DMSO vehicle control
Description: as §3

HT29 cells = test: BrdU proliferation assay, HT29; format: cell-based, human; conditions: 48 h
Description: (§4) For BrdU assays, 1×10^4 of indicated cells were plated per well into a 96-well plate. After 24 h, cells were treated with the indicated inhibitors for 48 h. Three independent experiments were plated with six replicates per each condition. Cells were treated with […] BrdU for 2 h. BrdU incorporation into newly synthesized DNA was measured using a cell proliferation colorimetric immunoassay kit according to the manufacturer's instructions (Roche, Switzerland). Results are expressed as mean±S.D. Results are represented as percentage of positive cells (mean±S.D) of three independent experiments.

LoVo cells [9] = test: BrdU proliferation assay, LoVo; format: cell-based; conditions: 48 h
Description: as §4

[10] = system: HCT116 colon cancer cells; test: MTT cell viability assay, HCT116; format: cell-based, human; conditions: concentrations tested in the previous assays
Description: as §1

[11] = system: non-cancerous HEK293T cells; test: MTT cell viability assay, HEK293T; format: cell-based, human; conditions: concentrations tested in the previous assays
Description: as §1

[12] = system: Colon cancer HCT116 cells; test: BrdU proliferation assay, HCT116; format: cell-based, human; conditions: 48 h
Description: as §4

HT29 cell line = test: Invasion assay, HT29 (dose/response); format: cell-based, human; conditions: for cell invasion: treated 48 h, 1 μM, 10 μM, 50 μM, vs DMSO
Description: [The procedure below names another cell line; the source lists this cell line under the same test.] For invasion assays, cells were treated with Hakin-1 or DMSO as vehicle for 48 h using 1% FBS during the last 24 hours. 3×10^5 MDCK, MDCK-Hakai or LoVo cells were seeded in a cell invasion chamber (Cell invasion assay kit, Chemicon International) containing medium with 2% FBS. After 72 hours for MDCK and MDCK-Hakai Invasive and 16 h for LoVo cells, invasive cells invaded that reach the lower chamber containing 30% FBS were fixed and stained with crystal violet (Sigma Aldrich, St Louis, Mo.) following the manufacturer's specifications. For migration assays, HT29 cells were cultured with Hakin-1 or DMSO as vehicle for 48 h, using medium without serum the last 24 h. In the cell migration chamber were seeded 3×10^5 HT29 cells (Cell migration kit, Millipore, Bedford, Mass.) containing medium without serum. After 16 h, migrated cells in the lower chamber containing serum with 30% FBS were stained with crystal violet and counted following the manufacturer's specifications. For both invasion and migration assays cells were counted in five fields photographed with an Olympus microscope using a 20× objective, experiments were performed in triplicates for each condition and the assays were repeated at least three times. Results are expressed as mean±SD.

[13] = system: HT-29 human colorectal adenocarcinoma cell line; test: E-cadherin at cell-cell contacts, Vala SIM / CyteSeer Cell-Cell Junction Algorithm, HT-29; format: cell-based; conditions: for E-cadherin levels at cell-cell contacts: 48 hours, vs DMSO vehicle control; for increase of E-cadherin expression levels: 24 hours
Description: as §3

HT-29 cells [14] = test: Cell cycle (DNA content) analysis with CyteSeer, HT-29; format: cell-based, human
Description: as §3

SMILES: CC(/C=C/C(=O)O)=C\CC(O)/C(C)=C/CCC(C)C(C)O (stereo not shown) [Hakin-5, (2E,4E,8E)-7,13-Dihydroxy-4,8,12-trimethyl-2,4,8-tetradecatrienoic acid, reference compound]
- ubiquitination mediated by Hakai ([1]; 293T cells transfected with Src, Flag-Hakai and HA-ubiquitin, western blotting anti-HA): no effect was detected on Hakai-mediated ubiquitination
- sensitivity to treatment (cell viability, MTT) [2]: more resistant
- sensitivity to treatment (cell viability, MTT) [3]: more sensitive
- cell phenotype by phase contrast (HT-29 cells [4]): modestly induce an epithelial phenotype
- cell phenotype by phase contrast (LoVo cells [5]): modestly induce an epithelial phenotype
- cell phenotype by phase contrast [6]: induction of an epithelial phenotype
- cell phenotype by phase contrast (epithelial MDCK cells): no effect was observed
- EMT markers expression (E-Cadherin, Cortactin, Hakai) (HT-29 cells [7]; HT29): does not affect the EMT markers expression
- E-cadherin levels (western blotting) (HT-29 cells [7]; HT-29): no effect by western-blotting or immunofluorescence was detected on E-cadherin protein levels
- E-cadherin levels at cell-cell contacts (immunofluorescence) (HT-29 cells [8]; 48 h, vs DMSO): no effect by western-blotting or immunofluorescence was detected on E-cadherin protein levels
- cell proliferation (BrdU) (HT29 cells): no effect was seen
- cell proliferation (BrdU) (LoVo cells [9]): no effect was seen

SMILES: O=C(O)c1ccc(-n2nnnc2SC2CCc3ccccc3NC2=O)cc1 (stereo not shown) [Compound K33]
- E-cadherin expression at cell-cell contacts (immunofluorescence, Image J) (HT-29 cells [8]): increase E-cadherin levels at cell-cell contacts

- Hakai-induced ubiquitination [1]: reduce ubiquitination at 20 μM
- IC50 (HT29 cell line; Homo sapiens, HT-29, treated 48 h, read-out: concentration at which 50% inhibition of invasion was achieved): ~1 µM
SMILES: Cc1ccc(CNC(=O)CSc2nc3sccc3c(=O)n2-c2ccc(C(=O)O)cc2)cc1 [Compound K8]
- cytotoxic effect (cell viability, MTT) [10]: inhibitory response in cancer cells
- cytotoxic effect (cell viability, MTT) [11]: no effect was detected in non-tumour cells
- E-cadherin expression at cell-cell contacts (immunofluorescence, Image J) (HT-29 cells [8]): increase E-cadherin levels at cell-cell contacts
- cell proliferation (BrdU) [12]: inhibit cell proliferation
- cell invasion (HT29 cell line): reduce cell invasion

SMILES: O=C(O)c1ccc(-n2nnnc2SC(c2ccccc2)c2ccc(Cl)cc2)cc1 (stereo not shown) [Compound K1]
- Hakai-induced ubiquitination [1]: reduced ubiquitination at 20 μM and 100 μM
- cytotoxic effect (cell viability, MTT) [10]: no cytotoxic effect
- cytotoxic effect (cell viability, MTT) [11]: no cytotoxic effect
- E-cadherin levels at cell-cell contacts ([13]; 100 μM): significantly increased E-cadherin levels at cell-cell contacts
- cell cycle (HT-29 cells [14]; 100 μM, 48 hours): arrested the cells in G0/G1 phase
- cell numbers (HT-29 cells [14]; 100 μM, 48 hours): reduced the cell numbers
- cell invasion (HT29 cell line): reduce cell invasion

SMILES: Cc1ccc(NC(=O)CSc2nnnn2-c2cccc(C(=O)O)c2)cc1C [Compound K2]
- E-cadherin levels at cell-cell contacts ([13]; 100 μM or 20 μM): Significant differences were also detected
- cell cycle (HT-29 cells [14]; 100 μM, 48 hours): arrested the cells in G0/G1 phase
- cell numbers (HT-29 cells [14]; 100 μM, 48 hours): reduced the cell numbers

SMILES: COC(=O)Nc1nc2ccc(C(=O)c3cccs3)cc2[nH]1 [nocodazole]
- increase of E-cadherin expression levels ([13]; 250 ng/ml): 32%
- increase of E-cadherin expression levels ([13]; 500 ng/ml): 42%
- increase of E-cadherin expression levels ([13]; 1000 ng/ml): 47%
- cell cycle (HT-29 cells [14]; 24 hours, vs DMSO vehicle control): dramatic shift towards G2/M phase arrest
